Assay results as given in US20090209617A1, “DULOXETINE SALTS” (priority 2006, published 2009).
Structures can show the parent of a compound that is named as a salt.

What was measured:
[1] = HPLC assay of the impurity of the Formula (II) in the duloxetine salt obtained; assay type: physicochemical; conditions: rearrangement product of duloxetine, salt as obtained, limit of detection 0.01 percent by weight
Description: The limit of detection for the compound of the Formula (II) is a feature of the high-performance liquid chromatographic method used for the assay thereof. Using the chromatographic method disclosed in the present application, said limit of detection is 0.01 percent by weight.
The analysis is carried out using ultraviolet absorption detector under the following chromatographic conditions:
Column, Chiral OD-R, 250*4,6 mm, 10 μm particle size • Flow rate, 1.0 ml/minute • Injection volume, 10 μl • Column temperature, 40° C. • Temperature of sample compartment, 20° C. • Detection wavelength, 220 nm • Mobile phase A: solution of 40 g of sodium hydroxide and 85 ml of concentrated perchloric acid are dissolved in 200 ml of distilled water, pH 2.1 • B: acetonitrile • Eluent composition, isocratic, 55 percent by volume mobile phase A • Analysis time, 30 minutes • Sample concentration, 10 mg/10 ml • Sample solvent, water-acetonitrile 80:20 volume/volume • Needle wash, water-acetonitrile […] volume/volume • Selectivity factor, >4 • Number of theoretical plates, min. 10000 • Asymmetry factor, <2
The assay is carried out according to the requirements of the pharmacopoeia regarding the determination of the impurities.
(§1) A sample containing approximately 100 mg of duloxetine is thoroughly homogenized in a mortar, weighed with analytical precision and transferred into a suitable volumetric flask. 80 ml of 80:20 volume by volume mixture of water and acetonitrile are added to the sample and the suspension is shaked in an ultrasonic bath for 10 minutes at the temperature of 25° C. The suspension is filtered and completed to 100 ml with the extraction solvent.

[2] = Stability testing of duloxetine-containing medicinal products (HPLC, mass spectrometry); assay type: physicochemical; conditions: during manufacture of the salt and during shelf-life of the medicinal products prepared from it
Description: During the process of stability testing, the identity and concentration of individual impurities present in the medicinal product are determined as the function of time and storage conditions. In the aforementioned tests, generally high-performance liquid chromatography and mass spectrometry are used as analytical methods.
In order to identify the above mentioned impurities, each of them has been separated by high-performance liquid chromatography and their molecular weight was determined by mass spectrometry.
Subsequently, the compound of the Formula (II) has been prepared by the rearrangement of duloxetine hydrobromide in pure form and in good yield and the thus obtained product was subjected to structure elucidation. The identity of the thus obtained (±)-N-methyl-3-(2-thienyl)-3-(4-hydroxy-1-naphtyl)-propylamine of the Formula (II) with the impurity observed during the stability testing has been established using high-performance liquid chromatography and mass spectrometry.
The following sample preparation method has been used during the stability testing of duloxetine-containing medicinals products and assay of duloxetine active ingredients.
as §1, with “solvent. A 10-μl portion of the thus obtained solution is analyzed by the high-performance liquid chromatographic method of Example 9.” for “solvent.”

[3] = preparation of salts with strong mineral acids, especially hydrobromic acid; 25 to 50° C.

| melting point | Compound | amount of the impurity of the Formula (II) in the product [1] | formation of (±)-N-methyl-3-(2-thienyl)-3-(4-hydroxy-1-naphtyl)-propylamine of the Formula (II) [2] | time in which the compound of the Formula (II) forms [3] |
| --- | --- | --- | --- | --- |
| 190 to 196 °C | CNCCC(c1cccs1)c1ccc(O)c2ccccc12 (racemic) | – | – | – |
| – | CNCCC(Oc1cccc2ccccc12)c1cccs1.O=C(O)C(O)c1ccccc1 (stereo not drawn) [Example 3, (+)-N-methyl-3-(1-naphtyloxy)-3-(2-thienyl)-propylamine(−)-mandelate (1:1)] | less than 0.01 percent by weight | can be detected neither during the manufacture of the above-mentioned particularly preferable salts, nor during the shelf-life | – |
| – | CNCC[C@H](Oc1cccc2ccccc12)c1cccs1 [Example 6, (+)-N-methyl-3-(1-naphtyloxy)-3-(2-thienyl)-propylamine hydrochloride (1:1), reference compound] | approximately 0.05 percent by weight | – | – |
| – | CNCC[C@H](Oc1cccc2ccccc12)c1cccs1 [duloxetine, (+)-(S)—N-methyl-3-(1-naphtyloxy)-3-(2-thienyl)-propylamine] | – | – | a few minutes |
| – | (+)-N-methyl-3-(1-naphtyloxy)-3-(2-thienyl)-propylamine citrate (1:1) [Example 1] | less than 0.01 percent by weight | can be detected neither during the manufacture of the above-mentioned particularly preferable salts, nor during the shelf-life | – |
| – | (+)-N-methyl-3-(1-naphtyloxy)-3-(2-thienyl)-propylamine fumarate (1:1) [Example 2] | less than 0.01 percent by weight | can be detected neither during the manufacture of the above-mentioned particularly preferable salts, nor during the shelf-life | – |
